Laboratory results from patent publication US6511976B1, “Halogen substituted tetracyclic tetrahydrofuran derivatives” (Jannsen Pharmaceutica, N.V., priority 1997, dated 2003).

What was measured:
[1] = dose of 300 mg/kg; cited from earlier work
mCPP induced effects = assay: mCPP Test on Rats (pre-test time T of 1 hour); format: in vivo; conditions: test compound at pre-test time T of 1 hour; 1 mg/kg mCPP intravenously 15 minutes prior to test; Open Field Test
Method: Rats were treated with the test compound at a varying dose at a pre-test time T of 1 hour and with 1 mg/kg mCPP (metachlorophenylpiperazine), injected intravenously, 15 minutes prior to the test. After pre-test time T elapsed, treated rats were submitted to the “Open Field Test on Rats” as described in Drug Dev. Res. 18, 119-144 (1989), but using an infra-red light source instead of a Kleverlux® (12V/20W) light source. […] Compound numbers 2 and 8 through 16 were active at a test dose of 2.5 mg/kg or lower. Other compounds were either not tested or were active at a higher dose.

[2] = system: dopamine (symptoms elicited with the dopamine agonist apomorphine); assay: ATN Test in Rats: apomorphine interaction; format: in vivo; conditions: observed at 30 minutes following subcutaneous administration
Description: (§1) The antipsychotic activity of the subject compounds is evidenced by the experimental data obtained in the combined apomorphine (APO), tryptamine (TRY) and norepinephrine (NOR) test in rats. Said combined apomorphine, tryptamine and norepinephrine test is described in Arch. Int. Pharmacodyn., 227, 238-253 (1977) and provides an empirical evaluation of the relative specificity with which drugs may effect particular neurotransmitter systems centrally (CNS) as well as peripherally. […] The favourable pharmacological property of the present compounds compared to the compounds specifically disclosed in WO 97/38991 lies in their ability to antagonize the central symptoms elicited by apomorphine and tryptamine.

[3] = system: serotonin (central symptoms elicited with the serotonin agonist tryptamine); assay: ATN Test in Rats: tryptamine interaction; format: in vivo; conditions: observed at 90 minutes following subcutaneous administration
Description: as §1

Structure (SMILES)	activity as antidepressant [1]	active dose (40% or more of the tested rats showed suppression of the mCPP induced effects, mCPP-antagonism) (mCPP induced effects) [mg/kg]	ED50, apomorphine interaction: antagonism of agitation and stereotypy [2] [mg/kg]	ED50, tryptamine interaction: antagonism of backward locomotion [3] [mg/kg]	ED50, tryptamine interaction: antagonism of bilateral clonic convulsions [3]
CNCC1CC2c3ccccc3Cc3ccccc3C2O1.O=C(O)C(=O)O (racemic) [(±)-3,3a,8,12b-tetrahydro-N-methyl-2H-dibenzo[3,4:6,7]-cyclohepta-[1,2-b]furan-2-methanamine oxalic acid]	inactive				
CN(C)CC1CC2c3ccccc3Cc3ccc(F)cc3C2O1.Cl (racemic) [Compound 2, (±)-(2α,3aβ,12bα)-11-fluoro-3,3a,8,12b-tetrahydro N,N-dimethyl-2H-dibenzo[3,4:6,7]cyclohepta[1,2-b]furan-2-methanamine hydrochloride]		≤ 2.5			
CN(C)CC1CC2c3ccccc3Cc3ccccc3C2O1 (single isomer, unassigned) [a]			>10	10	≧10 mg/kg
CN(C)CC1CC2c3ccccc3Cc3ccccc3C2O1 (single isomer, unassigned) [b]			>10	1.3	1.3 mg/kg
CN(C)CC1CC2c3ccccc3Cc3ccccc3C2O1 (single isomer, unassigned) [c]			>10	10	1.25 mg/kg
CN(C)CC1CC2c3ccccc3Cc3ccccc3C2O1 (single isomer, unassigned) [d]			2.7	0.2	0.15 mg/kg
CN(C)CC1CC2c3ccccc3Cc3ccc(F)cc3C2O1.O=C(O)C(O)C(O)C(=O)O (stereo not drawn) [Compound 11, [B-(2α,3aβ,12bα)]-11-fluoro-3,3a,8,12b-tetrahydro-N,N-dimethyl-2H-dibenzo[3,4:6,7]cyclohepta[1,2-b]furan-2-methanamine (+)-[R-R*,R*)]-2,3-dihydroxybutanedioate (1:1)]			2.0	0.5	0.4 mg/kg
